What all share (format): in vivo
Assay [1] deals with caterpillars of the army worm (Spodoptera frugiperda). Description: Spodoptera frugiperda test. As to conditions: 168 h, cabbage leaves dipped, after 7 d, read-out: Kill rate in % after 7 d. The method, then: (§1) To produce a suitable preparation of active compound, 1 part by weight of active compound is mixed with the stated amounts of solvent and emulsifier, and the concentrate is diluted with emulsifier-containing water to the desired concentration.
Cabbage leaves (Brassica oleracea) are treated by being dipped into the preparation of active compound of the desired concentration and are populated with caterpillars of the army worm (Spodoptera frugiperda) while the leaves are still moist.
(§2) After the desired period of time, the kill in % is determined. 100% means that all caterpillars have been killed; 0% means that none of the caterpillars have been killed.

The next assay deals with Periplaneta americana. Kind of assay: Cockroach test. Particulars: dipped 1 minute, after 7 days. The method, then:
(§3) 20 mg of active compound are dissolved in 1 ml of dimethyl sulphoxide. More dilute concentrations are prepared by dilution with distilled water.
4 test animals are dipped for 1 minute into the preparation of active compound to be tested. After transfer into a plastic beaker and storage for 7 days in an air-conditioned room the killing rate is determined. 100% means, that all cockroaches have been killed, 0% means, that none of the cockroaches have been killed.

Assay [2] deals with Heliothis virescens larvae. Description: Test for persistency: Heliothis virescens. As to conditions: 20 ppm, cotton plants sprayed. Here is the method: as §1
Cotton plants (Gossypium hirsutum) are sprayed with a preparation of active compound of the desired concentration. After the stated number of days, Heliothis virescens larvae are, in infection chambers, placed on the treated leaves.
as §2

The subject of a further assay is Lucilia cuprina larvae. Kind of assay: Blowfly larvae test/development-inhibitory action. The method, then:
as §3
About 20 Lucilia cuprina larvae are introduced into a test tube which contains about 1 cm^3 of horsemeat and 0.5 ml of the preparation of active compound to be tested. The activity of the preparation of active compound is determined after 24 and 48 hours. The test tubes are transferred into a beaker whose bottom is covered with sand. After a further 2 days, the test tubes are removed and the pupae are counted.
The activity of the preparation of active compound is assessed using the number of flies that have hatched after 1.5 times the development period of an untreated control. 100% means that none of the flies have hatched; 0% means that all of the flies have hatched normally.

The subject of assay [3] is larvae of the mustard beetle (Phaedon cochleariae). Kind of assay: Phaedon larvae test. As to conditions: 168 h, cabbage leaves dipped, after 7 d, read-out: Kill rate in % after 7 d. Here is the method: To produce a suitable preparation of active compound, 1 part by weight of active compound is mixed with the stated amounts of solvent and emulsifier, and the concentrate is diluted with emulsifier-containing water to the desired concentration. Cabbage leaves (Brassica oleracea) are treated by being dipped into the preparation of active compound of the desired concentration and are populated with larvae of the mustard beetle (Phaedon cochleariae) while the leaves are still moist.

In assay [4] the test system is larvae of the army worm (Spodoptera frugiperda). Description: Test for persistency: Spodoptera frugiperda. Particulars: 20 ppm, cotton plants sprayed. Here is the method: as §1
Cotton plants (Gossypium hirsutum) are sprayed with a preparation of active compound of the desired concentration. After the stated number of days, larvae of the army worm (Spodoptera frugiperda) are, in infection chambers, placed on the treated leaves.
as §2

For the molecule `N#Cc1cnn(C2CN(C(=O)Nc3ccc(SC(F)(F)F)cc3)N=C2c2ccc(Br)cc2)c1` (centres unmarked) [drawing 66], the pest or weed control at 500 ppm in assay [1] was found to be 100%.
Take `N#Cc1cnn(C2CN(C(=O)Nc3ccc(OC(F)(F)F)cc3)N=C2c2ccc(I)cc2)c1` (centres unmarked) [drawing 102]: the “activity/kill rate in %” value in the assay with Periplaneta americana (100 ppm) was determined as 50%.
As for `N#Cc1cnn(C2CN(C(=O)Nc3ccc(C(F)(F)F)cc3)N=C2c2ccc(Cl)cc2)c1` (centres unmarked) [drawing 73], the “Kill rate in % 7 d after infection” value was 100% in assay [2] (infection after 5 d), 100% in assay [2] (infection after 12 d) and 90% in assay [2] (infection after 19 d).
`N#CCN(C(=O)N1CC(n2cc(C#N)cn2)C(c2ccc(Cl)cc2)=N1)c1ccc(OC(F)(F)F)cc1` (centres unmarked) [drawing 63]: the pest or weed control at 500 ppm in assay [1] was 100%.
On the same count and under the same terms, under `N#Cc1cnn(C2CN(C(=O)Nc3ccc(SC(F)(F)F)cc3)N=C2c2ccc(I)cc2)c1` (centres unmarked) [drawing 69] stands 100%.
As for `COC(=O)N(C(=O)N1CC(n2cc(C#N)cn2)C(c2ccc(Cl)cc2)=N1)c1ccc(OC(F)(F)F)cc1` (centres unmarked) [drawing 79], the “activity/kill rate in % after 48 h” value in the assay with Lucilia cuprina larvae (20 ppm) and in the assay on Lucilia cuprina larvae (100 ppm) was 100/100% throughout.
As for `CCOC(=O)N(C(=O)N1CC(n2cc(C#N)cn2)C(c2ccc(Cl)cc2)=N1)c1ccc(OC(F)(F)F)cc1` (centres unmarked) [drawing 47], in assay [3], the pest or weed control at 500 ppm came to 100%.
Take `COC(=O)N(C(=O)N1CC(n2cc(C#N)cn2)C(c2ccc(Cl)cc2)=N1)c1ccc(OC(F)(F)F)cc1` (centres unmarked) [drawing 45]: the pest or weed control at 500 ppm in assay [3] amounted to 100%.
`N#Cc1cnn(C2CN(C(=O)Nc3ccc(OC(F)(F)F)cc3)N=C2c2ccc(I)cc2)c1` (centres unmarked) [drawing 51]: the pest or weed control at 500 ppm in assay [3] came out at 100%.
On to `N#Cc1cnn(C2CN(C(=O)Nc3ccc(OC(F)(F)F)cc3)N=C2c2ccc(Cl)cc2)c1` (centres unmarked) [drawing 72], for which the “Kill rate in % 7 d after infection” value in assay [2] (infection after 5 d) was found to be 100%; in assay [2] (infection after 12 d), 90%; in assay [2] (infection after 19 d), 100%.
For `N#CCN(C(=O)N1CC(n2cc(C#N)cn2)C(c2ccc(Cl)cc2)=N1)c1ccc(OC(F)(F)F)cc1` (centres unmarked) [drawing 46], the pest or weed control at 500 ppm in assay [3] was 100%.
The same measure, in the same setting: the same measure for `N#Cc1cnn(C2CN(C(=O)Nc3ccc(S(=O)(=O)C(F)(F)F)cc3)N=C2c2ccc(Cl)cc2)c1` (centres unmarked) [drawing 52]: 100%.
For the molecule `N#Cc1cnn(C2CN(C(=O)Nc3ccc(OC(F)(F)F)cc3)N=C2c2ccc(Br)cc2)c1` (centres unmarked) [drawing 101], the “activity/kill rate in %” value with Periplaneta americana (100 ppm) was determined as 25%.
Take `N#Cc1cnn(C2CN(C(=O)Nc3ccc(Cl)cc3)N=C2c2ccc(Cl)cc2)c1` (centres unmarked) [drawing 44]: the pest or weed control at 500 ppm in assay [3] was determined as 100%.
With `N#Cc1cnn(C2CN(C(=O)Nc3ccc(SC(F)(F)F)cc3)N=C2c2ccc(Cl)cc2)c1` (centres unmarked) [drawing 77], the “Kill rate in % 7 d after infection” value in assay [4] (infection after 5 d) is on record as 90%; in assay [4] (infection after 12 d) it was 100%; in assay [4] (infection after 19 d) it was 100%.
Consider `N#Cc1cnn(C2CN(C(=O)Nc3ccc(S(=O)(=O)C(F)(F)F)cc3)N=C2c2ccc(Br)cc2)c1` (centres unmarked) [drawing 67], for which, in assay [1], the pest or weed control at 500 ppm was 100%.
Take `N#Cc1cnn(C2CN(C(=O)Nc3ccc(SC(F)(F)F)cc3)N=C2c2ccc(Cl)cc2)c1` (centres unmarked) [drawing 88]: the “activity/kill rate in % after 14 d” value in the assay on Lucilia cuprina larvae (20 ppm) and in the assay with Lucilia cuprina larvae (100 ppm) was 100/100% in each case.
Turning to `CCOC(=O)N(C(=O)N1CC(n2cc(C#N)cn2)C(c2ccc(Cl)cc2)=N1)c1ccc(OC(F)(F)F)cc1` (centres unmarked) [drawing 100], the “activity/kill rate in %” value is 25% with Periplaneta americana (20 ppm) and 75% in the assay with Periplaneta americana (100 ppm).
Regarding `N#Cc1cnn(C2CN(C(=O)Nc3ccc(SC(F)(F)F)cc3)N=C2c2ccc(Cl)cc2)c1` (centres unmarked) [drawing 74], the “Kill rate in % 7 d after infection” value is on record as 80% in assay [2] (infection after 5 d), 70% in assay [2] (infection after 12 d) and 90% in assay [2] (infection after 19 d).
`CCOC(=O)N(C(=O)N1CC(n2cc(C#N)cn2)C(c2ccc(Cl)cc2)=N1)c1ccc(OC(F)(F)F)cc1` (centres unmarked) [drawing 80]: the pest or weed control at 100 ppm in the assay with Lucilia cuprina larvae (Lucilia cuprina, 48 h, read-out: activity/kill rate in % after 48 h) amounted to 100%.
Turning to `N#Cc1cnn(C2CN(C(=O)Nc3ccc(OC(F)(F)F)cc3)N=C2c2ccc(SC(F)(F)F)cc2)c1` (centres unmarked) [drawing 70], the pest or weed control at 500 ppm in assay [1] amounted to 100%.
Regarding `N#Cc1cnn(C2CN(C(=O)Nc3ccc(SC(F)(F)F)cc3)N=C2c2ccc(Br)cc2)c1` (centres unmarked) [drawing 50], in assay [3], the pest or weed control at 500 ppm was found to be 100%.
As to `N#Cc1cnn(C2CN(C(=O)Nc3ccc(Cl)cc3)N=C2c2ccc(Cl)cc2)c1` (centres unmarked) [drawing 87], the “activity/kill rate in % after 14 d” value in the assay with Lucilia cuprina larvae (20 ppm) and in the assay with Lucilia cuprina larvae (100 ppm) was 100/100% throughout.
As for `N#Cc1cnn(C2CN(C(=O)Nc3ccc(OC(F)(F)F)cc3)N=C2c2ccc(I)cc2)c1` (centres unmarked) [drawing 68], the pest or weed control at 500 ppm in assay [1] was 100%.
On to `N#Cc1cnn(C2CN(C(=O)Nc3ccc(S(=O)(=O)C(F)(F)F)cc3)N=C2c2ccc(Cl)cc2)c1` (centres unmarked) [drawing 84], for which the “activity/kill rate in % after 48 h” value in the assay on Lucilia cuprina larvae (20 ppm) and with Lucilia cuprina larvae (100 ppm) was 100/100% in each case.
Regarding `N#Cc1cnn(C2CN(C(=O)Nc3ccc(OC(F)(F)F)cc3)N=C2c2ccc(Cl)cc2)c1` (centres unmarked) [drawing 43], in assay [3], the pest or weed control at 500 ppm is 100%.
Consider `COC(=O)N(C(=O)N1CC(n2cc(C#N)cn2)C(c2ccc(Cl)cc2)=N1)c1ccc(OC(F)(F)F)cc1` (centres unmarked) [drawing 99], for which the “activity/kill rate in %” value in the assay with Periplaneta americana (20 ppm) was 25%; in the assay with Periplaneta americana (100 ppm), 100%.
Consider `N#Cc1cnn(C2CN(C(=O)Nc3ccc(C(F)(F)F)cc3)N=C2c2ccc(Cl)cc2)c1` (centres unmarked) [drawing 76], for which the “Kill rate in % 7 d after infection” value in assay [4] (infection after 5 d), in assay [4] (infection after 12 d) and in assay [4] (infection after 19 d) was “infection after: 5^d 12^d 19^d 100 100 100%” throughout.
Regarding `N#Cc1cnn(C2CN(C(=O)Nc3ccc(OC(F)(F)F)cc3)N=C2c2ccc(Cl)cc2)c1` (centres unmarked) [drawing 78], the “activity/kill rate in % after 48 h” value in the assay with Lucilia cuprina larvae (20 ppm) and with Lucilia cuprina larvae (100 ppm) was 100/100% each time.
On to `N#Cc1cnn(C2CN(C(=O)Nc3ccc(C(F)(F)F)cc3)N=C2c2ccc(Cl)cc2)c1` (centres unmarked) [drawing 62], for which the pest or weed control at 500 ppm in assay [1] is 100%.
With `N#Cc1cnn(C2CN(C(=O)Nc3ccc(OC(F)(F)F)cc3)N=C2c2ccc(Br)cc2)c1` (centres unmarked) [drawing 49], in assay [3], the pest or weed control at 500 ppm worked out at 100%.
Regarding `N#Cc1cnn(C2CN(C(=O)Nc3ccc(OC(F)(F)F)cc3)N=C2c2ccc(Cl)cc2)c1` (centres unmarked) [drawing 75], the “Kill rate in % 7 d after infection” value in assay [4] (infection after 5 d), in assay [4] (infection after 12 d) and in assay [4] (infection after 19 d) was “infection after: 5^d 12^d 19^d 100 100 100%” in each case.
With `N#Cc1cnn(C2CN(C(=O)Nc3ccc(SC(F)(F)F)cc3)N=C2c2ccc(SC(F)(F)F)cc2)c1` (centres unmarked) [drawing 71], the pest or weed control at 500 ppm in assay [1] was 100%.
The same measure, in the same setting: the same measure for `CCOC(=O)N(C(=O)N1CC(n2cc(C#N)cn2)C(c2ccc(Cl)cc2)=N1)c1ccc(OC(F)(F)F)cc1` (centres unmarked) [drawing 64]: 100%.
Take `N#Cc1cnn(C2CN(C(=O)Nc3ccc(C(F)(F)F)cc3)N=C2c2ccc(Cl)cc2)c1` (centres unmarked) [drawing 98]: the “activity/kill rate in %” value with Periplaneta americana (100 ppm) amounted to 50%.
Turning to `N#Cc1cnn(C2CN(C(=O)Nc3ccc(OC(F)(F)F)cc3)N=C2c2ccc(Br)cc2)c1` (centres unmarked) [drawing 65], the pest or weed control at 500 ppm in assay [1] worked out at 100%.
For the molecule `N#Cc1cnn(C2CN(C(=O)Nc3ccc(S(=O)(=O)C(F)(F)F)cc3)N=C2c2ccc(Br)cc2)c1` (centres unmarked) [drawing 82], the “activity/kill rate in % after 48 h” value with Lucilia cuprina larvae (20 ppm) and with Lucilia cuprina larvae (100 ppm) was 100/100% in each case.
Consider `N#Cc1cnn(C2CN(C(=O)Nc3ccc([S+]([O-])C(F)(F)F)cc3)N=C2c2ccc(Cl)cc2)c1` (centres unmarked) [drawing 90], for which the “activity/kill rate in % after 14 d” value with Lucilia cuprina larvae (20 ppm) and with Lucilia cuprina larvae (100 ppm) was 100/100% each time.
As for `N#Cc1cnn(C2CN(C(=O)Nc3ccc(OC(F)(F)F)cc3)N=C2c2ccc(Cl)cc2)c1` (centres unmarked) [drawing 97], the “activity/kill rate in %” value in the assay with Periplaneta americana (100 ppm) turned out to be 25%.
With `N#CCN(C(=O)N1CC(n2cc(C#N)cn2)C(c2ccc(Cl)cc2)=N1)c1ccc(OC(F)(F)F)cc1` (centres unmarked) [drawing 85], the “activity/kill rate in % after 48 h” value in the assay on Lucilia cuprina larvae (20 ppm) and in the assay with Lucilia cuprina larvae (100 ppm) was 100/100% in each case.
